Data from ChEMBL document CHEMBL4680139, “Antiproliferative activity of diarylnaphthylpyrrolidine derivative via dual target inhibition” (Eur J Med Chem, 2020).

Columns and labels:
[1] = Toxicity in Swiss albino mouse assessed as absolute and relative lung weight at 5 to 300 mg/kg, po administered as single dose; assay type: organism-based; settings: in vivo, dose 5-300 mg/kg
MCF7 [2] = assay: Induction of apoptosis in human MCF-7 cells assessed as proportion of late apoptotic cells at 8.66 uM measured after 24 hrs by Annexin V- FITC/propidium iodide staining based flow cytometry (reference value: 0.1%); assay type: functional
[3] = biological target: DNA topoisomerase 2-alpha (Homo sapiens) (UniProt P11388); assay: Inhibition of DNA-topoisomerase 2 in human MCF7 cells using kinetoplast DNA as substrate at 8.66 uM measured by ELISA; assay type: cell-based
Sequence of DNA topoisomerase 2-alpha (Homo sapiens) (P11388 whole entry): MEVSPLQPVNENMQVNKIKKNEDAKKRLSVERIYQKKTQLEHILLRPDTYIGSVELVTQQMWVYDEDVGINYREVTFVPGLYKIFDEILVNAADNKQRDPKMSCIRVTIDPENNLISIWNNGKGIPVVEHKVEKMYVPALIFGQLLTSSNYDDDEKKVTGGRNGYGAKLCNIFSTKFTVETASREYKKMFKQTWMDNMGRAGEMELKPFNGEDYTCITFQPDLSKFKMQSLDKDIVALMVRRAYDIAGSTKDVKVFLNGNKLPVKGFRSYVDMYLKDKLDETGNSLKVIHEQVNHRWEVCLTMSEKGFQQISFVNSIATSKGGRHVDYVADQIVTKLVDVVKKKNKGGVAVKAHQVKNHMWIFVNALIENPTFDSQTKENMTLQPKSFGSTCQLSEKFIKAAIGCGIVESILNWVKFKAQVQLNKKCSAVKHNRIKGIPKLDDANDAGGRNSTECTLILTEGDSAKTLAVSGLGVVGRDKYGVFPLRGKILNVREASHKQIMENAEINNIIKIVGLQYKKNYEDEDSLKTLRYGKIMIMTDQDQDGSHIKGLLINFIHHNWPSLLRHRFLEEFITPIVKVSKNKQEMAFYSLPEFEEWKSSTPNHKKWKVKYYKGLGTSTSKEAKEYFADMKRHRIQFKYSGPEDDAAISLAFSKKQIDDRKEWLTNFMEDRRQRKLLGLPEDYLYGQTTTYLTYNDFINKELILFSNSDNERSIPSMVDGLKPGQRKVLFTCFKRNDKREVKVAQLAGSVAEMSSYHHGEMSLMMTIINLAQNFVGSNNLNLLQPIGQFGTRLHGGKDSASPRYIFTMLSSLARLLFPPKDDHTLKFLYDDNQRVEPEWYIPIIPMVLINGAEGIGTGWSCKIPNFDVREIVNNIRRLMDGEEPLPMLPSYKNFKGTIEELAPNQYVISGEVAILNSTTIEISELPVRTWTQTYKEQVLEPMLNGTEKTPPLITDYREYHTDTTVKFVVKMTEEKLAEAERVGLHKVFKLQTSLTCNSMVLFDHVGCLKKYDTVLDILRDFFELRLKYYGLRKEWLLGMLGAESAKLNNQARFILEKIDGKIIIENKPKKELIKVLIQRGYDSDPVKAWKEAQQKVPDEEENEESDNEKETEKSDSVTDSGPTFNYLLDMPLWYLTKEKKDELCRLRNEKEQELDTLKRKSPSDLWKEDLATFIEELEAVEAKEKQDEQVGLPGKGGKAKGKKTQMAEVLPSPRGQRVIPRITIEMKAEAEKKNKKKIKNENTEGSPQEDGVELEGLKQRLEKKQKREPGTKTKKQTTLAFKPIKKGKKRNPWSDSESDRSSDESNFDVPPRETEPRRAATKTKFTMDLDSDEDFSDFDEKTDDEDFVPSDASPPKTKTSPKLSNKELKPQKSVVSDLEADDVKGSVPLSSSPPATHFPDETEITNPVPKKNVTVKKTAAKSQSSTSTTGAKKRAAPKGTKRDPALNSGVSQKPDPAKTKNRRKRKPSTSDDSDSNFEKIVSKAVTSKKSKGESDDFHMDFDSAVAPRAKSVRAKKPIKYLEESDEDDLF

[4] = Toxicity in Swiss albino mouse assessed as RBC level in blood at 300 mg/kg, po administered as single dose (reference value: 10.56 +/- 1.22x10^6/mm3); assay type: organism-based; settings: in vivo
MDA-MB-231 [5] = assay: Induction of cell cycle arrest in human MDA-MB-231 cells assessed as accumulation at G0/G1 phase at 2.6 uM by propidium iodide staining based flow cytometry (reference value: 77.7 +/- 0.28%); assay type: functional
[6] = biological target: DNA topoisomerase 2-alpha (Homo sapiens) (UniProt P11388); assay: Inhibition of DNA-topoisomerase 2 in human MCF7 cells using kinetoplast DNA as substrate at 4.33 uM measured by ELISA; assay type: cell-based
MCF7 [7] = assay: Induction of cell cycle arrest in human MCF-7 cells assessed as accumulation at G0/G1 phase at 8.66 uM by propidium iodide staining based flow cytometry (reference value: 74.5%); assay type: functional
MDA-MB-231 [8] = assay: Induction of apoptosis in human MDA-MB-231 cells assessed as proportion of viable cells at 10.42 uM measured after 24 hrs by Annexin V-FITC/propidium iodide staining based flow cytometry (reference value: 99%); assay type: functional
[9] = Toxicity in Swiss albino mouse assessed as albumin level in serum at 300 mg/kg, po administered as single dose (reference value: 0.56 +/-0.02 g/dl); assay type: organism-based; settings: in vivo
[10] = Toxicity in Swiss albino mouse assessed as triglyceride level in serum at 5 mg/kg, po administered as single dose (reference value: 78.34 +/-2.99 mg/dl); assay type: organism-based; settings: in vivo
[11] = biological target: DNA topoisomerase 2-alpha (Homo sapiens) (UniProt P11388); assay: Inhibition of DNA-topoisomerase 2 in human MCF7 cells using kinetoplast DNA as substrate at 17.32 uM measured by ELISA; assay type: cell-based

## COc1ccc(C(c2ccccc2OCCN2CCCC2)c2cccc3ccccc23)c(OC)c1OC (stereo unspecified)
[1]
  Activity: Non-Toxic
MCF7 [2]
  Activity: 25.8%
[3]
  inhibition: 13.7%
[4]
  Activity: 11.64 million/mm3
MDA-MB-231 [5]
  Activity: 80.2%
[6]
  inhibition: 0.22%
MCF7 [7]
  Activity: 66.5%
MDA-MB-231 [8]
  Activity: 49.4%
[9]
  Activity: 0.54 g/dL
[10]
  Activity: 77.24 mg/dL
[11]
  inhibition: 25.9%
